Measured values reported in US20060008512A1, “Composition and methods for improved animal performance” (priority 2004, published 2006).
Read-outs that look alike come from different tables or passages of the source.

System: Hy-Line W-36 White Leghorn hens
Settings: for Egg Shell, % (washed, dried): 6 & 10 d rooms combined; for Whole egg weight (mean±SEM): 4 day period after start of test diets
Protocol: Experiment 2. […] The photoperiod was 17 hours of light per day (0330 hours to 2030 hours).
The objective was to use T4 to humanely induce molting in hens that are continuously provided with ad libitum access to palatable feed meeting or exceeding all National Research Council (1994) standards. Developing a fully efficacious yet affordable molting protocol was predicated on determining the minimum effective level for T4 supplementation. Factors that potentially may affect the required level of T4 supplementation include: (1) uncertainty regarding the efficiency of T4 absorption by the gastrointestinal tract, (2) the possibility that continuous dietary ingestion of T4 could trigger substantially different biological responses when compared single daily injections, and (3) the likelihood that daily T4 intake would diminish in parallel with molt-related reductions in feed intake associated with cessation in egg production. A spontaneous and voluntary loss of appetite (anorexia) commonly accompanies seasonal molting and broodiness in a variety of avian species (Berry, 2003; Webster, 2003). Accordingly, the responses of hens to diets containing 10, 20, and 40 mg T4/kg, to bracket the anticipated range of T4 needed to cause an effective molt, were determined.

[1] = 10 mg/kg of feed 6 d from day 5, Day 7
[2] = 10 mg/kg of feed 6 d from day 5, Day 10
[3] = 10 mg/kg of feed 6 d from day 5, Day 14
[4] = 10 mg/kg of feed 6 d from day 5, Day 30
[5] = 10 mg/kg of feed 10 d from day 5, Day 7
[6] = 10 mg/kg of feed 10 d from day 5, Day 10
[7] = 10 mg/kg of feed 10 d from day 5, Day 14
[8] = 10 mg/kg of feed 10 d from day 5, Day 30
[9] = 20 mg/kg of feed 6 d from day 5, Day 7
[10] = 20 mg/kg of feed 6 d from day 5, Day 10
[11] = 20 mg/kg of feed 6 d from day 5, Day 14
[12] = 20 mg/kg of feed 6 d from day 5, Day 30
[13] = 20 mg/kg of feed 10 d from day 5, Day 7
[14] = 20 mg/kg of feed 10 d from day 5, Day 10
[15] = 20 mg/kg of feed 10 d from day 5, Day 14
[16] = 20 mg/kg of feed 10 d from day 5, Day 30
[17] = 40 mg/kg of feed 6 d from day 5, Day 7
[18] = 40 mg/kg of feed 6 d from day 5, Day 10
[19] = 40 mg/kg of feed 6 d from day 5, Day 14
[20] = 40 mg/kg of feed 6 d from day 5, Day 30
[21] = 40 mg/kg of feed 10 d from day 5, Day 7
[22] = 40 mg/kg of feed 10 d from day 5, Day 10
[23] = 40 mg/kg of feed 10 d from day 5, Day 14
[24] = 40 mg/kg of feed 10 d from day 5, Day 30

SMILES: N[C@@H](Cc1cc(I)c(Oc2cc(I)c(O)c(I)c2)c(I)c1)C(=O)O [L-thyroxine, 3,5,3′,5′-tetraiodo-L-thyronine]
- Onset of molt after T4 feeding was initiated (10 mg T4/kg, 10 days on test diets, half of the hens): 11 days
- Body weight (BW) (10 mg/kg of feed 6 d from day 5, Day 1): 1501 g
- Body weight (BW) [1]: 1377 g
- Body weight change from day 1 (% BWC) [1]: −8.3%
- Body weight (BW) [2]: 1293 g
- Body weight change from day 1 (% BWC) [2]: −13.9%
- Body weight (BW) [3]: 1424 g
- Body weight change from day 1 (% BWC) [3]: −5.1%
- Body weight (BW) [4]: 1483 g
- Body weight change from day 1 (% BWC) [4]: −1.2%
- Hen-day egg production (10 mg/kg of feed 6 d from day 5, day 4): 75%
- Hen-day egg production (10 mg/kg of feed 6 d from day 5, day 6): 58%
- Hen-day egg production (10 mg/kg of feed 6 d from day 5, day 8): 25%
- Hen-day egg production (10 mg/kg of feed 6 d from day 5, day 10): 8%
- Hen-day egg production (10 mg/kg of feed 6 d from day 5, day 12): 17%
- Hen-day egg production (10 mg/kg of feed 6 d from day 5, day 14): 0%
- Hen-day egg production (10 mg/kg of feed 6 d from day 5, day 16): 33%
- Hen-day egg production (10 mg/kg of feed 6 d from day 5, day 18): 25%
- Hen-day egg production (10 mg/kg of feed 6 d from day 5, day 20): 58%
- Hen-day egg production (10 mg/kg of feed 6 d from day 5, day 22): 75%
- Hen-day egg production (10 mg/kg of feed 6 d from day 5, day 24): 83%
- Hen-day egg production (10 mg/kg of feed 6 d from day 5, day 26): 42%
- Hen-day egg production (10 mg/kg of feed 6 d from day 5, day 28): 83%
- Hen-day egg production (10 mg/kg of feed 6 d from day 5, day 30): 75%
- Body weight (BW) (10 mg/kg of feed 10 d from day 5, Day 1): 1477 g
- Body weight (BW) [5]: 1372 g
- Body weight change from day 1 (% BWC) [5]: −7.1%
- Body weight (BW) [6]: 1335 g
- Body weight change from day 1 (% BWC) [6]: −9.6%
- Body weight (BW) [7]: 1314 g
- Body weight change from day 1 (% BWC) [7]: −11.0%
- Body weight (BW) [8]: 1400 g
- Body weight change from day 1 (% BWC) [8]: −5.2%
- Hen-day egg production (10 mg/kg of feed 10 d from day 5, day 4): 58%
- Hen-day egg production (10 mg/kg of feed 10 d from day 5, day 6): 50%
- Hen-day egg production (10 mg/kg of feed 10 d from day 5, day 8): 42%
- Hen-day egg production (10 mg/kg of feed 10 d from day 5, day 10): 17%
- Hen-day egg production (10 mg/kg of feed 10 d from day 5, day 12): 17%
- Hen-day egg production (10 mg/kg of feed 10 d from day 5, day 14): 17%
- Hen-day egg production (10 mg/kg of feed 10 d from day 5, day 16): 17%
- Hen-day egg production (10 mg/kg of feed 10 d from day 5, day 18): 25%
- Hen-day egg production (10 mg/kg of feed 10 d from day 5, day 22): 33%
- Hen-day egg production (10 mg/kg of feed 10 d from day 5, day 24): 50%
- Hen-day egg production (10 mg/kg of feed 10 d from day 5, day 26): 25%
- Hen-day egg production (10 mg/kg of feed 10 d from day 5, day 28): 25%
- Hen-day egg production (10 mg/kg of feed 10 d from day 5, day 30): 33%
- Egg Shell, % (washed, dried) (10 mg/kg of feed, Days 2 to 4): 7.93 (n = 6) %
- Egg Shell, % (washed, dried) (10 mg/kg of feed, Days 5 to 6): 7.39 (n = 9) %
- Egg Shell, % (washed, dried) (10 mg/kg of feed, Days 7 to 8): 6.63 (n = 8) %
- Body weight (BW) (20 mg/kg of feed 6 d from day 5, Day 1): 1582 g
- Body weight (BW) [9]: 1434 g
- Body weight change from day 1 (% BWC) [9]: −9.4%
- Body weight (BW) [10]: 1373 g
- Body weight change from day 1 (% BWC) [10]: −13.2%
- Body weight (BW) [11]: 1491 g
- Body weight change from day 1 (% BWC) [11]: −3.9%
- Body weight (BW) [12]: 1521 g
- Body weight change from day 1 (% BWC) [12]: −3.9%
- Hen-day egg production (20 mg/kg of feed 6 d from day 5, day 4): 94%
- Hen-day egg production (20 mg/kg of feed 6 d from day 5, day 6): 69%
- Hen-day egg production (20 mg/kg of feed 6 d from day 5, day 8): 17%
- Hen-day egg production (20 mg/kg of feed 6 d from day 5, day 10): 0%
- Hen-day egg production (20 mg/kg of feed 6 d from day 5, day 12): 17%
- Hen-day egg production (20 mg/kg of feed 6 d from day 5, day 14): 14%
- Hen-day egg production (20 mg/kg of feed 6 d from day 5, day 16): 33%
- Hen-day egg production (20 mg/kg of feed 6 d from day 5, day 18): 39%
- Hen-day egg production (20 mg/kg of feed 6 d from day 5, day 20): 47%
- Hen-day egg production (20 mg/kg of feed 6 d from day 5, day 22): 64%
- Hen-day egg production (20 mg/kg of feed 6 d from day 5, day 24): 64%
- Hen-day egg production (20 mg/kg of feed 6 d from day 5, day 26): 78%
- Hen-day egg production (20 mg/kg of feed 6 d from day 5, day 28): 89%
- Hen-day egg production (20 mg/kg of feed 6 d from day 5, day 30): 61%
- Body weight (BW) (20 mg/kg of feed 10 d from day 5, Day 1): 1680 g
- Body weight (BW) [13]: 1533 g
- Body weight change from day 1 (% BWC) [13]: −8.8%
- Body weight (BW) [14]: 1431 g
- Body weight change from day 1 (% BWC) [14]: −14.8%
- Body weight (BW) [15]: 1373 g
- Body weight change from day 1 (% BWC) [15]: −18.3%
- Body weight (BW) [16]: 1448 g
- Body weight change from day 1 (% BWC) [16]: −13.8%
- Egg Shell, % (washed, dried) (20 mg/kg of feed, Days 2 to 4): 8.38 (n = 10) %
- Egg Shell, % (washed, dried) (20 mg/kg of feed, Days 5 to 6): 8.08 (n = 13) %
- Egg Shell, % (washed, dried) (20 mg/kg of feed, Days 7 to 8): 5.56 (n = 2) %
- Egg production (40 mg T4/kg diet for 10 days): cease completely
- Body weight (BW) (40 mg/kg of feed 6 d from day 5, Day 1): 1629 g
- Body weight (BW) [17]: 1443 g
- Body weight change from day 1 (% BWC) [17]: −11.4%
- Body weight (BW) [18]: 1350 g
- Body weight change from day 1 (% BWC) [18]: −17.1%
- Body weight (BW) [19]: 1396 g
- Body weight change from day 1 (% BWC) [19]: −14.3%
- Body weight (BW) [20]: 1481 g
- Body weight change from day 1 (% BWC) [20]: −9.1%
- Hen-day egg production (40 mg/kg of feed 6 d from day 5, day 4): 67%
- Hen-day egg production (40 mg/kg of feed 6 d from day 5, day 6): 42%
- Hen-day egg production (40 mg/kg of feed 6 d from day 5, day 8): 8%
- Hen-day egg production (40 mg/kg of feed 6 d from day 5, day 10): 0%
- Hen-day egg production (40 mg/kg of feed 6 d from day 5, day 12): 0%
- Hen-day egg production (40 mg/kg of feed 6 d from day 5, day 14): 0%
- Hen-day egg production (40 mg/kg of feed 6 d from day 5, day 16): 0%
- Hen-day egg production (40 mg/kg of feed 6 d from day 5, day 18): 8%
- Hen-day egg production (40 mg/kg of feed 6 d from day 5, day 20): 25%
- Hen-day egg production (40 mg/kg of feed 6 d from day 5, day 22): 25%
- Hen-day egg production (40 mg/kg of feed 6 d from day 5, day 24): 50%
- Hen-day egg production (40 mg/kg of feed 6 d from day 5, day 26): 17%
- Hen-day egg production (40 mg/kg of feed 6 d from day 5, day 28): 33%
- Hen-day egg production (40 mg/kg of feed 6 d from day 5, day 30): 33%
- Body weight (BW) (40 mg/kg of feed 10 d from day 5, Day 1): 1572 g
- Body weight (BW) [21]: 1392 g
- Body weight change from day 1 (% BWC) [21]: −11.5%
- Body weight (BW) [22]: 1309 g
- Body weight change from day 1 (% BWC) [22]: −16.7%
- Body weight (BW) [23]: 1245 g
- Body weight change from day 1 (% BWC) [23]: −20.8%
- Body weight (BW) [24]: 1322 g
- Body weight change from day 1 (% BWC) [24]: −15.9%
- Egg Shell, % (washed, dried) (40 mg/kg of feed, Days 2 to 4): 8.34 (n = 6) %
- Egg Shell, % (washed, dried) (40 mg/kg of feed, Days 5 to 6): 7.82 (n = 6) %
- Egg Shell, % (washed, dried) (40 mg/kg of feed, Days 7 to 8): 6.63 (n = 3) %
- Mortality (10, 20, 40 mg T4/kg diets, 6 or 10 days): No mortal-ity occurred
- Whole egg weight (mean±SEM) (10 ppm T4): 62 ± 2 g
- Time to reduced egg production (20 and 40 mg T4/kg feed): ≤ 4 days
- Whole egg weight (mean±SEM) (20 ppm T4): 65 ± 2 g
- Whole egg weight (mean±SEM) (40 ppm T4): 65 ± 3 g
- Size of regressed reproductive tracts at necropsy (hens that had entirely ceased egg production after the test diets): ≤ 50 % normal size
